Consider one molecule from US20250000846A1, “METHODS OF TREATMENT OR PREVENTION OF ACUTE BRAIN OR NERVE INJURIES” (Annovis Bio, Inc., priority 2015, published 2025).

Molecules are shown by their SMILES.

In test [1] the test system is IBA-1+ microglia cells in the substantia nigra. Description: Fluid percussion injury, microglial activation by diameter of IBA-1-positive cells in substantia nigra. The test is classed as in vivo, rats. The conditions noted are these: 10 mg/kg. As to the method: Because FPI can induce microglial activation according to Hutson et al (J. Neurotrauma, Jun. 6, 2011; PMID:21644813), whether posiphen would reverse this pathological response using quantitative measures was tested in the vehicle or posiphen tartrate treated (10 mg/kg) rats from Example 2 (part of the brain from each of the euthanized rat was stained for tyrosine hydroxylase in Example 2 and another part of the brain was stained for microglia in Example 3). Microglial activation was assessed by quantitative measure of the diameter of IBA-1-positive cells, wherein IBA-1 stands for ionized calcium adaptor binding protein.
Analysis was done on a Leica DM-LB microscope with a Ludl XYZ motorized stage and z-axis microcator (MT12, Heidenheim, Traunreut, Germany) using StereoInvestigator software
(MicroBrightField, Colchester, VT). A contour was drawn to delineate the substantia nigra under the 5× objective lens to ensure anatomical accuracy. Following delineation, the diameters of microglial cell bodies were measured in the first counting frame (100 μm) and then in every fifth counting frame at 40× magnification. This sampling frequency was chosen in order to count approximately 30-50 IBA-1+ cells in each side of the substantia nigra. The first counting frame was always positioned in the upper left corner of the contour and systematically moved from left to right and from top to bottom until the entire delineated contour region was sampled. The number of IBA-1+ microglia cells with cell diameters ranging from 1 μm to 14 μm was then normalized to the total number counted in each section and expressed as a percentage of total microglia. The results are shown in FIG. 4 (wherein the percent of IBA-1+ cells was plotted on the vertical axis, and the microglial cell diameter in um was plotted on the horizontal axis). In FIG. 4, the blank portion of each data bar represents the mean % of IB A-1+ cells with the solid or striped portion at the top of the bar representing the 95% confidence interval. In each pair of data bars in FIG. 4, the bar on the left having a solid portion at the top represents data from the vehicle-treated group, while the bar on the right having a striped portion at the top represents data from the 10 mg/kg posiphen-treated group, wherein the data of the posiphen-treated group (the bar on the right) were compared with the data of the vehicle-treated group (the bar on the left) with Bootstrapping method. The asterisks (*) at the top of some of the bars of the 10 mg/kg posiphen-treated group indicate statistical significance at p<0.05 when compared with the data of the corresponding bar of the vehicle-treated group as analyzed with the Bootstrapping method. Posiphen increased the number of resting microglia and reduced the number of activated microglia.

In test [2] the test system is TH+ terminals in the striatum. Kind of test: Fluid percussion injury (mild TBI), tyrosine hydroxylase (TH) immunoreactivity in striatum. The test is classed as in vivo, rats. As to the method: Rats were subjected to fluid percussion injury (FPI) or sham operation to one side of the brain using the same procedures described in Griesbach et al (Brain Research, 1288: 105-115,2009, PMCID:PMC2735616) and Hutson et al (J. Neurotrauma, Jun. 6, 2011; PMID:21644813). […] About 5 to 30 minutes after FPI or sham operation, the rats were administered with saline or posiphen tartrate at a dose of 2.5, 5 or 10 mg/kg body weight intraperitoneally and also daily for the next 28 to 32 days. At 90 minutes after the last saline or posiphen treatment, all the rats were sacrificed and sections of the brain of each of the rats were stained for tyrosine hydroxylase (TH), wherein TH stains only live cells. The amounts of TH immunoreactivity in the whole striatum of the brain slices were measured, Stereological analysis of dopaminergic (DA) neurons in the substantia nigra was conducted to determine whether posiphen would block the TBI-induced loss of DA neurons ipsilateral and contralateral to the FPI injury, using procedures described in Johnson et al (Brain Pathol. Jun. 29, 2011, doi: 10.1111/j.1750-3639.2011.00513.x) and Hoshino et al (Neurol. Med. Chir. (Tokyo), 2003 April; 43 (4): 165-74). The groups of rats included the rats with LOC above/at the median value. In FIG. 2, the sham operated group was compared with the vehicle group with two-way ANOVA, Bonferroni comparisons, wherein *p<0.05. In FIG. 3, the vehicle group was compared with the posiphen-treatment groups with one-way ANOVA, Bonferroni comparisons, wherein ^#p<0.05.

The subject of test [3] is rats subjected to mild traumatic brain injury. Description: Working memory test in Morris water maze after fluid percussion injury. Format: in vivo. As to the method:
The vehicle or posiphen tartrate treated rats from Example 2 were also subjected to working memory test in Morris water maze. Each of the rats was individually tested in the Morris water maze, which had 4 release points for putting the rat into the water and 4 platforms for the rat to swim to. For a total of 3 consecutive days (on one and two days before the last vehicle or posiphen treatment, and also on the day of the last vehicle or posiphen treatment before euthanasia), the rats were tested on their ability to find the 4 platform positions, using paired trials (4 paired trials per day). In each pair of the trials, the first trial was the learning trial, for the rat to learn the position of a platform, and the second trial was the memory trial for testing the memory of the rat to swim to the platform that the rat learned in the learning trial. In the learning trial, each of the rats was allowed a maximum swim time of 90 seconds to swim to the platform, and guided to the platform if needed after 90 seconds. The memory trial was started 5 seconds after the completion of the learning trial and the time for the rat to reach the platform by swimming in the maze in the memory trial was recorded. The 4 platform positions were switched after every pair of trials. The time interval between the learning trials of two consecutive pairs of trials in a day was 5 minutes. […]

Another test relates to retinal neurons. Description: Retinal ischemia-reperfusion (IR), Cell Death ELISA of retina. The conditions noted are these: posiphen tartrate 30 mg/kg oral gavage once per day. The test is classed as in vivo, Sprague-Dawley rats. An excerpt: IR is a well-established experimental model of glaucoma as well as neuronal cell death in other retinal diseases. IR was induced on one eye of each rat while the opposite eye served as an internal control. Transient IR was induced by raising the intraocular pressure by a controlled micro-injection of saline into the anterior chamber of the eye. This approach is well established to induce large amounts of apoptotic cell death in the retina, beginning within hours after the reperfusion and continuing for several days, leading to a loss of about 50% of the retina. There would also be a dramatic and persistent increase in the permeability of the vasculature of the inner retina during this period, which may lead to edema.
Adult male Sprague-Dawley rats (approx. 450 g, n=8) were housed under normal 12 hr light/dark conditions with free access to food and water. Rats were given posiphen tartrate (30 mg/kg body weight, delivered in 15 mg/ml water) or an equivalent volume of water (vehicle) by oral gavage once per day. Gavage was performed daily over three days and then on the fourth day IR was induced in anesthetized rats (ketamine:xylazine, 100:10 mg/kg, i.p.). […] The retinas were homogenized and fractionated to obtain a cytoplasmic sample which was assessed for nucleosome content in duplicate, using the Cell Death ELISA (Roche). Data were averaged and expressed as optical density (OD). […]
(In general: An ELISA detects its analyte on a solid surface through an enzyme-linked reagent.)

Regarding `CN1CC[C@]2(C)c3cc(OC(=O)Nc4ccccc4)ccc3N(C)C12` (stereo partly drawn) [posiphen, (3aR)-1,3a,8-trimethyl-1,2,3,3a,8,8a-hexahydropyrrolo[2,3-b]indol-5-yl phenylcarbamate], the “brain inflammation after traumatic brain injury” value in test [1] is recorded as “decreased”. Moreover, the “FPI-increased microglia activation in the substantia nigra ipsilateral to the injury” value in test [1] (statistically significant) is “attenuated”. For the same molecule, in test [1] (versus vehicle-treated group), the “number of activated microglia” value was “reduced” and the “number of resting microglia” value is given as “increased”. The “number of surviving cells in the ipsilateral area of the brain (striatum)” value in test [2] (2.5, 5 and 10 mg/kg i.p. daily for 28 to 32 days, all 3 doses) is reported as “statistically significant increase”. Besides, the “TH+ fluorescence intensity versus vehicle-treated group” value in test [2] (all posiphen-treated groups (2.5, 5, 10 mg/kg), one-way ANOVA, p<0.05) is “significantly higher”. For the same molecule, the “number of nerve cells of the striatum in the contralateral part of the brain” value in test [2] (highest dose of 10 mg/kg i.p. daily) is recorded as “an increase”. For the same molecule, the “protection of the TH+ cells in ipsilateral striatum (whole, rostral, medial and caudal)” value in test [2] (posiphen treated animals, ipsilateral side) is “full protection”. Moreover, the “FPI-induced decrease in the TH+ terminals in the striatum” value in test [2] (rat, in vivo) is reported as “attenuated”. The “latency to find the platform versus vehicle-treated group” value in test [3] (2.5 mg/kg and 5 mg/kg, p=0.0961) is on record as “non-significant trend toward a reduction”. Further, the “latency to reach the platform in memory trials versus vehicle-treated group” value in test [3] (10 mg/kg, p=0.0335) is given as “amelioration of this deficit”. In addition, the “number of dead nerve cells in retina of IR eye (IR-Pos) versus opposite eye (control-Pos)” value in the test with retinal neurons is “only slightly more”. In the test on retinal neurons (eye subjected to transient IR (IR-Pos), N=6), this molecule showed a retinal neurons rescued of 72%.
